Assay results: ChEMBL document CHEMBL6153032, “Discovery of a highly potent, N-terminal domain-targeting degrader of AR-FL/AR-V7 for the treatment of prostate cancer” (Eur J Med Chem, 2025)
Active and inactive are the calls of the source. The calls are words filed in the database; no cut-off is given here.

Legend:
[1] = target: T1, Androgen receptor (Homo sapiens) (UniProt P10275); experiment: Binding affinity to Androgen receptor in human 22Rv1 cells assessed as thermal stabilization at 10 uM incubated for 24 hrs by CETSA analysis; format: cell-based
T1 sequence (whole entry): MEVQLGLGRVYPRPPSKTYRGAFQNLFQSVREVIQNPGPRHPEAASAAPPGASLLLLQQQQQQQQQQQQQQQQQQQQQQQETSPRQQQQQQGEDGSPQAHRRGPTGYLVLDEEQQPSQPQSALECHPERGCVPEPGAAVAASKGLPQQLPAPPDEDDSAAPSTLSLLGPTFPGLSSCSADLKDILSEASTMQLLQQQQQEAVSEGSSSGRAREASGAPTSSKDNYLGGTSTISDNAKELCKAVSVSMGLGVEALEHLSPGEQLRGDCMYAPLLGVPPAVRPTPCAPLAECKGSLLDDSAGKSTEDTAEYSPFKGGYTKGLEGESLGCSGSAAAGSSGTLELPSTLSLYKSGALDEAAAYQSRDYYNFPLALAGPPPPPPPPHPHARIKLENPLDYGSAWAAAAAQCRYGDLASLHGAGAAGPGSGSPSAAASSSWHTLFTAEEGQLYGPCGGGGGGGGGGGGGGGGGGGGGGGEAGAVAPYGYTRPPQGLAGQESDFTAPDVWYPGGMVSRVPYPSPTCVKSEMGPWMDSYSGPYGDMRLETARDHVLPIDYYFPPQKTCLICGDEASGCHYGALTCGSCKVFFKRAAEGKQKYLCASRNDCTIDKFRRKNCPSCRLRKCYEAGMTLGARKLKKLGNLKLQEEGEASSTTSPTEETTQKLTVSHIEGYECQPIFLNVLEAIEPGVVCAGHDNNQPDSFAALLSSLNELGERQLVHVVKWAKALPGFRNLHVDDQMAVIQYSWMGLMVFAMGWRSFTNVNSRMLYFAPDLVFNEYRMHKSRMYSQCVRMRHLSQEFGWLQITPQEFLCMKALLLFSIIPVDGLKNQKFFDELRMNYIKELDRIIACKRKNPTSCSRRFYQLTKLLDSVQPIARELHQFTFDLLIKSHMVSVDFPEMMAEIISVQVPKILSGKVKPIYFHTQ

[2] = tested on: Androgen receptor (Homo sapiens), P10275 [UNDEFINED MUTATION]; experiment: Binding affinity to AR-V7 in human 22Rv1 cells assessed as thermal stabilization at 10 uM incubated for 24 hrs by CETSA analysis; format: cell-based
[3] = target: T1, Androgen receptor (Homo sapiens); experiment: Binding affinity to Androgen receptor in human 22Rv1 cells at 10 uM incubated for 24 hrs by SPR analysis; format: cell-based
[4] = tested on: Androgen receptor (Homo sapiens), P10275 [UNDEFINED MUTATION]; experiment: Binding affinity to AR-V7 in human 22Rv1 cells at 10 uM incubated for 24 hrs by SPR analysis; format: cell-based
[5] = tested on: Protein cereblon/Androgen receptor (Homo sapiens), P10275+Q96SW2 [UNDEFINED MUTATION]; experiment: PROTAC activity at AR-V7/CRBN in human 22Rv1 cells assessed as induction of AR-V7 degradation at 5 uM incubated for 24 hrs by Western blot analysis relative to control; format: cell-based; conditions: CWR22R
Sequence of Protein cereblon/Androgen receptor (Homo sapiens), P10275+Q96SW2 [UNDEFINED MUTATION] (Q96SW2 whole entry, looked up, stated change not applied, one chain of several): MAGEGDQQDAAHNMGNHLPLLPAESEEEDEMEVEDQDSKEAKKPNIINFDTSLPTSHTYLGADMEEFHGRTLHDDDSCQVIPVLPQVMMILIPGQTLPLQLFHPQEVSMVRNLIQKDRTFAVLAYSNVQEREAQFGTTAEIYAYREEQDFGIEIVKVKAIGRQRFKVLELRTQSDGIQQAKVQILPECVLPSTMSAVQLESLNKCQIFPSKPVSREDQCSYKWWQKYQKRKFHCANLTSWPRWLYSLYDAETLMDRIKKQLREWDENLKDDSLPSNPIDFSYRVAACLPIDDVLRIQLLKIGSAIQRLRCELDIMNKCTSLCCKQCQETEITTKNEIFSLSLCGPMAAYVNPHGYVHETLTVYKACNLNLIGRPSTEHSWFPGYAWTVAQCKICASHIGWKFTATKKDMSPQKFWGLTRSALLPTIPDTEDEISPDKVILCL

[6] = target: T2, Protein cereblon/Androgen receptor (Homo sapiens, UniProt P10275+Q96SW2); experiment: PROTAC activity at full length Androgen receptor/CRBN in human 22Rv1 cells assessed as induction of full length Androgen receptor degradation at 1 uM incubated for 24 hrs by Western blot analysis relative to control; format: cell-based
T2 sequence (Q96SW2 whole entry, looked up, one chain of several): as the sequence (Q96SW2 whole entry, looked up, stated change not applied, one chain of several) above

[7] = target: T2, Protein cereblon/Androgen receptor; experiment: PROTAC activity at full length Androgen receptor/CRBN in human 22Rv1 cells assessed as induction of full length Androgen receptor degradation at 5 uM incubated for 24 hrs by Western blot analysis relative to control; format: cell-based
[8] = tested on: Protein cereblon/Androgen receptor (Homo sapiens), P10275+Q96SW2 [UNDEFINED MUTATION]; experiment: PROTAC activity at AR-V7/CRBN in human 22Rv1 cells assessed as induction of AR-V7 degradation at 1 uM incubated for 24 hrs by Western blot analysis relative to control; format: cell-based; conditions: CWR22R
CWR22R [9] = experiment: Antiproliferative activity against human 22Rv1 cells incubated for 4 days by CCK-8 assay; format: functional, cell-based; conditions: 22Rv1, 96 h
CWR22R [10] = experiment: Induction of apoptosis in human 22Rv1 cells assessed as viable cells at 100 nM incubated for 48 hrs by Annexin V/FITC staining based flow cytometry analysis (reference value: 94.49%); format: functional; conditions: read-out: Activity
CWR22R [11] = experiment: Induction of apoptosis in human 22Rv1 cells assessed as late apoptotic cells at 100 nM incubated for 48 hrs by Annexin V/FITC staining based flow cytometry analysis (reference value: 1.12 %); format: functional
CWR22R [12] = experiment: Induction of cell cycle arrest in human 22Rv1 cells assessed as accumulation of cells at G0/G1 phase at 100 nM incubated for 24 hrs by PI staining based flow cytometry analysis (reference value: 62.66%); format: functional
CWR22R [13] = experiment: Induction of cell cycle arrest in human 22Rv1 cells assessed as accumulation of cells at S phase at 100 nM incubated for 24 hrs by PI staining based flow cytometry analysis (reference value: 28.73%); format: functional
CWR22R [14] = experiment: Induction of apoptosis in human 22Rv1 cells assessed as necrotic cells at 100 nM incubated for 48 hrs by Annexin V/FITC staining based flow cytometry analysis (reference value: 2.31 %); format: functional
CWR22R [15] = experiment: Induction of apoptosis in human 22Rv1 cells assessed as early apoptotic cells at 100 nM incubated for 48 hrs by Annexin V/FITC staining based flow cytometry analysis (reference value: 2.08 %); format: functional
CWR22R [16] = experiment: Induction of cell cycle arrest in human 22Rv1 cells assessed as accumulation of cells at G2/M phase at 100 nM incubated for 24 hrs by PI staining based flow cytometry analysis (reference value: 8.61%); format: functional
CWR22R [17] = experiment: Inhibition of colony formation in human 22Rv1 cells assessed as reduction in colony formation incubated for 14 days; format: functional, cell-based; conditions: dose 1-100 nM, time 14.0 day

SMILES | Activity [5] [%] | Activity [6] [%] | Activity [7] [%] | Activity [8] [%] | IC50 (CWR22R [9]) [µM] | other results
CC(C)(c1ccc(O)cc1)c1ccc(OCc2cccc(N3CCOCC3)n2)cc1 | – | – | – | – | – | Activity [1]: inactive; Activity [2]: inactive; Activity [3]: Active; Activity [4]: Active
CC(C)(c1ccc(OCC(=O)NCCNc2ccc3c(c2)C(=O)N(C2CCC(=O)NC2=O)C3=O)cc1)c1ccc(OCC(O)CCl)cc1 (configuration not stated) | < 10 | < 10 | < 10 | < 10 | > 20 | –
CC(C)(c1ccc(OCCCCNc2ccc3c(c2)C(=O)N(C2CCC(=O)NC2=O)C3=O)cc1)c1ccc(OCC(O)CCl)cc1 (configuration not stated) | 23.6 | 88.1 | 81.1 | 55.1 | 3.11 | –
CC(C)(c1ccc(OCC(=O)NC2CN(c3ccc4c(c3)C(=O)N(C3CCC(=O)NC3=O)C4=O)C2)cc1)c1ccc(OCC(O)CCl)cc1 (configuration not stated) | 69.8 | < 10 | 22.3 | 62.1 | > 20 | –
CC(C)(c1ccc(OCC(=O)N2CCC(CNc3ccc4c(c3)C(=O)N(C3CCC(=O)NC3=O)C4=O)CC2)cc1)c1ccc(OCC(O)CCl)cc1 (configuration not stated) | 79.9 | < 10 | 69.6 | < 10 | 15 | –
CC(C)(c1ccc(OCC(=O)NCCCCCCNc2ccc3c(c2)C(=O)N(C2CCC(=O)NC2=O)C3=O)cc1)c1ccc(OCC(O)CCl)cc1 (configuration not stated) | < 10 | 84.1 | 72.1 | 32.2 | 11.4 | –
CC(C)(c1ccc(OCC(=O)N2CCC(N3CCN(c4ccc5c(c4)C(=O)N(C4CCC(=O)NC4=O)C5=O)CC3)CC2)cc1)c1ccc(OCC(O)CCl)cc1 (configuration not stated) | < 10 | < 10 | < 10 | 33.2 | > 20 | –
CC(C)(c1ccc(OCCCCCCNc2ccc3c(c2)C(=O)N(C2CCC(=O)NC2=O)C3=O)cc1)c1ccc(OCC(O)CCl)cc1 (configuration not stated) | 21.2 | 90 | < 10 | 74.7 | 2.17 | –
CC(C)(c1ccc(OC[C@H](O)CO)cc1)c1ccc(OC[C@H](O)CCl)cc1 | < 10 | < 10 | < 10 | < 10 | > 20 | viability at 0.1 µM (CWR22R [10]): 80.7%; Activity (CWR22R [11]): 4.6%; Activity (CWR22R [12]): 50.06%; Activity (CWR22R [13]): 38.87%; Activity (CWR22R [14]): 0.78%; Activity (CWR22R [15]): 13.9%; Activity (CWR22R [16]): 11.07%; inhibition (CWR22R [17]): Weak_effect
CC(C)(c1ccc(OCCCNc2cccc3c2C(=O)N(C2CCC(=O)NC2=O)C3=O)cc1)c1ccc(OCC(O)CCl)cc1 (configuration not stated) | 83.1 | 52.1 | 58.3 | 58.7 | 9.77 | –
CC(C)(c1ccc(OCC(=O)NC2CCN(c3ccc4c(c3)C(=O)N(C3CCC(=O)NC3=O)C4=O)CC2)cc1)c1ccc(OCC(O)CCl)cc1 (configuration not stated) | 71.4 | 75.2 | 45.2 | 68.8 | 3.61 | –
CC(C)(c1ccc(OCC(=O)NCCCNc2cccc3c2C(=O)N(C2CCC(=O)NC2=O)C3=O)cc1)c1ccc(OCC(O)CCl)cc1 (configuration not stated) | 93.6 | 88.1 | 91.1 | 80.1 | 1.11 | –
CC(C)(c1ccc(OCC(=O)NCCCNc2ccc3c(c2)C(=O)N(C2CCC(=O)NC2=O)C3=O)cc1)c1ccc(OCC(O)CCl)cc1 (configuration not stated) | < 10 | < 10 | < 10 | < 10 | > 20 | –
CC(C)(c1ccc(OCC(=O)NC2CN(c3cccc4c3C(=O)N(C3CCC(=O)NC3=O)C4=O)C2)cc1)c1ccc(OCC(O)CCl)cc1 (configuration not stated) | 88.2 | 80.1 | 89 | 67.7 | 1.17 | –
CC(C)(c1ccc(OCc2cccc(N3CCOCC3)n2)cc1)c1ccc(OCC2CCN(c3cccc4c3C(=O)N(C3CCC(=O)NC3=O)C4=O)CC2)cc1 (configuration not stated) | < 10 | < 10 | < 10 | < 10 | > 20 | –
CC(C)(c1ccc(OCC(=O)NCCN2CCN(c3cccc4c3C(=O)N(C3CCC(=O)NC3=O)C4=O)CC2)cc1)c1ccc(OCc2cccc(N3CCOCC3)n2)cc1 (configuration not stated) | < 10 | < 10 | < 10 | < 10 | > 20 | –
CC(C)(c1ccc(OCC(=O)NCCCCCNc2ccc3c(c2)C(=O)N(C2CCC(=O)NC2=O)C3=O)cc1)c1ccc(OCC(O)CCl)cc1 (configuration not stated) | < 10 | < 10 | < 10 | < 10 | > 20 | –
CC(C)(c1ccc(OCC(=O)NCCCCNc2ccc3c(c2)C(=O)N(C2CCC(=O)NC2=O)C3=O)cc1)c1ccc(OCC(O)CCl)cc1 (configuration not stated) | < 10 | < 10 | < 10 | < 10 | > 20 | –
CC(C)(c1ccc(OCC(=O)NC2CCN(c3cccc4c3C(=O)N(C3CCC(=O)NC3=O)C4=O)CC2)cc1)c1ccc(OCc2cccc(N3CCOCC3)n2)cc1 (configuration not stated) | 48.7 | < 10 | 28.3 | < 10 | > 20 | –
CC(C)(c1ccc(OCCNc2cccc3c2C(=O)N(C2CCC(=O)NC2=O)C3=O)cc1)c1ccc(OCC(O)CCl)cc1 (configuration not stated) | 87 | 82.5 | < 10 | 87.2 | 7.77 | –
CC(C)(c1ccc(OCC(=O)NCCOCCOCCOCCNc2cccc3c2C(=O)N(C2CCC(=O)NC2=O)C3=O)cc1)c1ccc(OCc2cccc(N3CCOCC3)n2)cc1 (configuration not stated) | 40 | 42.5 | 83.5 | < 10 | 11.2 | –
CC(C)(c1ccc(OCCCCNc2cccc3c2C(=O)N(C2CCC(=O)NC2=O)C3=O)cc1)c1ccc(OCC(O)CCl)cc1 (configuration not stated) | 89.3 | < 10 | 31.3 | 78.1 | 9.05 | –
CC(C)(c1ccc(OCC(=O)NCCCNc2cccc3c2C(=O)N(C2CCC(=O)NC2=O)C3=O)cc1)c1ccc(OCc2cccc(N3CCOCC3)n2)cc1 (configuration not stated) | 55.5 | 22.1 | 78.6 | < 10 | 7.44 | –
CC(C)(c1ccc(OCCCCCCNc2cccc3c2C(=O)N(C2CCC(=O)NC2=O)C3=O)cc1)c1ccc(OCC(O)CCl)cc1 (configuration not stated) | 93 | 16.7 | < 10 | 79.5 | 6.45 | –
